Assay [1] addresses KDR kinase (Homo sapiens (Human), UniProt P35968). Put plainly: KDR control kinase activity, HTRF KinEASE-TK TR-FRET assay. Format: biochemical. The settings on record: inhibition of KDR kinase; 16000 nM~0.04 nM, 2% DMSO. The procedure:
(§1) In this method, HTRF®KinEASE-TK Tyrosine Kinase Kit (Cat. No. 62TK0PEB) of Cisbio was used to determine the degree of phosphorylation of biotinylated polypeptide substrates by time-resolved fluorescence energy transfer (TR-FRET). Human RET protein (RET kinase) was purchased from Carna bioscience (Japan, Cat. No. 08-159-5 μg).
(§2) The experimental steps are as follows: • (1) The test compound (the compound of the present disclosure, and compound 164 in WO2018017983A1 as a control) was dissolved in 100% DMSO to a final concentration of 10 mM. • (2) 4 μL of the test compound solution prepared in step (1) was dissolved with 46 μL of 100% DMSO, and the solution obtained in this step was numbered as No. 2. • (3) No. 2 solution was subjected to subsequent gradient dilution with a dilution factor of 5 times (i.e. 20 μL of 100% DMSO was added to 5 μL of the compound), a total of 9 gradients, numbered 3 to 11.
(§3) (Unless otherwise specified, the following steps need to be carried out on ice) • (4) The buffer provided in the kit (Cisbio, Cat. No. 62TK0PEB) was used to continuously serially dilute the solutions numbered from 3 to 11 with a dilution factor of 20 times (that is, adding 19 μL of buffer to the solutions numbered from 3 to 11). At this time, the final concentration range of the test compound in the system No. 3 to 11 was 3200 nM˜0.008 nM (9 gradients), and the final concentration of DMSO was 2%. • (5) 9 compound solutions of gradient concentration in step (4) were added into a 384-well plate in order according to their concentration at 4 μL per well, and two duplicate wells were set. • (6) 2 μL of human RET protein was added to each well and incubated on ice for 10 minutes. • (7) 2 μL of ATP (Sigma #A7699) and 2 μL of biotinylated polypeptide substrate (Cisbio, Cat. No. 62TK0PEB) were added to each well to start the phosphorylation reaction, and incubated at 37° C. for half an hour. • (8) 5 μL of anti-phosphotyrosine antibody coupled with europium compound (provided in the kit, Cat. No. 62TK0PEB) and 5 μL of streptavidin coupled with modified allophycocyanin XL665 (Cisbio, Cat. No. 62TK0PEB) were added to each well. • (9) The plate was continued to incubate for 1 hour at room temperature. After the incubation, the TF-FRET mode of the microplate reader (BMG Labtech, model: FLUOStar Omega) was adopted to measure the fluorescence intensity at an excitation wavelength of 304 nm and emission wavelengths of 615 nm and […] in each well. The ratio would be calculated automatically. • (10) By comparing the fluorescence intensity ratio in the control group, the inhibition rate of the compound at each concentration was calculated, and GraphPad Prism 5 was used to perform curve fitting with logarithmic concentration-inhibition rate to calculate the IC50 value of the compound.
The selected control kinase is another receptor tyrosine kinase, KDR, with similar structure to RET kinase, purchased from Carna bioscience (Japan, Cat. No. 08-191-5 μg). The step of gradient dilution was the same as that of RET kinase, and the final concentration range of the test compound in the reaction system was 16000 nM˜0.04 nM (No. 2-10 solutions were used for the gradient dilution in step 4). Other reaction conditions were the same as above, and the final concentration of DMSO was 2%. The calculation method for the IC50 value of KDR kinase inhibition by the test compound was the same as the calculation method for the IC50 value of RET kinase inhibition.

Assay [2] concerns the target Human RET protein (RET kinase) (Homo sapiens (Human), UniProt P07949). Put plainly: RET kinase activity, HTRF KinEASE-TK TR-FRET assay. The format is biochemical. The settings on record: inhibition of RET kinase; 9 concentrations 3200 nM~0.008 nM, 2% DMSO. The protocol:
Test Example 1. Determination of the Activity of the Compound of the Present Disclosure on RET Kinase
as §1, §2
Note: No. 2 was not used for the dilution in step (4).
as §3
Background: In TR-FRET formats the signal depends on donor and acceptor labels being close together.

Sequence of Human RET protein (RET kinase) (P07949 29-1114): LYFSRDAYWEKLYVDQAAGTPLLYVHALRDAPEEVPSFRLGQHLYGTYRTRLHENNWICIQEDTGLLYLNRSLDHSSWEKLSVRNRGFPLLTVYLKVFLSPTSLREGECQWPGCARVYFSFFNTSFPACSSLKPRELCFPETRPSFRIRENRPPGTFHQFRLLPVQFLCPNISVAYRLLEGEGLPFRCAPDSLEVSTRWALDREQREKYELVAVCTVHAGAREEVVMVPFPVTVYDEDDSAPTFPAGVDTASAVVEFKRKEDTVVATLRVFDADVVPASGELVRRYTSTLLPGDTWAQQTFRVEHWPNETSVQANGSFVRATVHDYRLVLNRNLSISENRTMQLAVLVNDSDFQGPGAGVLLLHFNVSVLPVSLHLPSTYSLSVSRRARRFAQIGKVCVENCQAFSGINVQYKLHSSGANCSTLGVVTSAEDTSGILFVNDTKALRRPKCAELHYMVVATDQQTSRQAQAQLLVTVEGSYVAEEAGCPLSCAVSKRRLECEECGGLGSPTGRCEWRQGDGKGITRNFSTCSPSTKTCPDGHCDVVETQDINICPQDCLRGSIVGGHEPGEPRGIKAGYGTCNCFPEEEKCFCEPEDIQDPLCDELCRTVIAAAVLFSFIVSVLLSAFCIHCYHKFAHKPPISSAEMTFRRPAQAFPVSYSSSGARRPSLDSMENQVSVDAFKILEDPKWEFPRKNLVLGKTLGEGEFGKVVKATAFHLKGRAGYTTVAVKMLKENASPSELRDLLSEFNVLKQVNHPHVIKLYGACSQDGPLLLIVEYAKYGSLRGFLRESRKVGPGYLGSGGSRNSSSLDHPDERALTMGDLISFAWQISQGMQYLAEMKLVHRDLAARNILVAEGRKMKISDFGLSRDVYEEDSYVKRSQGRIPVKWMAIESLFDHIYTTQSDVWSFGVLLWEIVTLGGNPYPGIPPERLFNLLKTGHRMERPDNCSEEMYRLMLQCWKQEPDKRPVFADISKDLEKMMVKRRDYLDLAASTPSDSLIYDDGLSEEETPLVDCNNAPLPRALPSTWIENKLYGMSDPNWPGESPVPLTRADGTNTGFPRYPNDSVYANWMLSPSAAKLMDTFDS
Sequence of KDR kinase (P35968 20-1356): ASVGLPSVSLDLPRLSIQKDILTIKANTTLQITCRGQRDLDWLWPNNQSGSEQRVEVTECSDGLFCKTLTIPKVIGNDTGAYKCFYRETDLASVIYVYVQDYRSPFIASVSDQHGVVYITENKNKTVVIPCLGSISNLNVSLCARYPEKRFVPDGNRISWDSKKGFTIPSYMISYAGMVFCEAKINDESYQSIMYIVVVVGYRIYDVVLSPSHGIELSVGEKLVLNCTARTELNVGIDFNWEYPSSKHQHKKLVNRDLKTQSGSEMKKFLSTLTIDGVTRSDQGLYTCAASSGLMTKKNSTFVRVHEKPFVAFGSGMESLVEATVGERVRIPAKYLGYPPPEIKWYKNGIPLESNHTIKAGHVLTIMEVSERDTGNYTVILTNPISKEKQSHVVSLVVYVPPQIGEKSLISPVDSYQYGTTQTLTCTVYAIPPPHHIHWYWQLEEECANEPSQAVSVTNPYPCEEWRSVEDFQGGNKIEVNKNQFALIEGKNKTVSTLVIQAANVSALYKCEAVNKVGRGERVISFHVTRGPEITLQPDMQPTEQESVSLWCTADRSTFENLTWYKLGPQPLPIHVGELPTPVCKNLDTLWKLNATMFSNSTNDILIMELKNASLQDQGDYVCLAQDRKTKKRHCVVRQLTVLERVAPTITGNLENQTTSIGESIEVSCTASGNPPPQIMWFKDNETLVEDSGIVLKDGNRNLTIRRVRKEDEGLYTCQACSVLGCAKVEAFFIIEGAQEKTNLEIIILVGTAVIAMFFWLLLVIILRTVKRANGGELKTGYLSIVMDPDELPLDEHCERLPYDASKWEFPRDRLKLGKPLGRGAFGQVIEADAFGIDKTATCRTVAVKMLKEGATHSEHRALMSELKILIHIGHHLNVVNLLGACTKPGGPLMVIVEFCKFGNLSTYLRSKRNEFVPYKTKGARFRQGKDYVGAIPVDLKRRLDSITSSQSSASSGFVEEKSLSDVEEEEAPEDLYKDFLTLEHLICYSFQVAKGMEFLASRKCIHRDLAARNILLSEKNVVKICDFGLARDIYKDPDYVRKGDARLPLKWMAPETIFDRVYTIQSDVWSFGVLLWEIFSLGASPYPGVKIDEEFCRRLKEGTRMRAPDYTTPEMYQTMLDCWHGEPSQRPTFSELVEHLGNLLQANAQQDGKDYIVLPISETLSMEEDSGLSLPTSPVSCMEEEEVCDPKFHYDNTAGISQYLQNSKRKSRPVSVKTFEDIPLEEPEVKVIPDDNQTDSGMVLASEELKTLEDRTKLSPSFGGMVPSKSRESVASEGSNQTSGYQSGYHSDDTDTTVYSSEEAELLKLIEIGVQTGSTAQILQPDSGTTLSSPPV

Take `Cc1cc(Nc2cc(C)[nH]n2)nc(N2CCC(C(=O)N[C@@H](C)c3ccc(-n4cc(F)cn4)nc3)CC2)c1` [Compound 164, reference compound]: the IC50 (in general, the midpoint of a concentration-inhibition curve) was determined as 2300 nM in assay [1] and 73 nM in assay [2].

Turning to `Cc1cc(Nc2cc(C)[nH]n2)nc(N2CCN(C(=O)c3ccc(-n4cc(F)cn4)nc3)CC2)n1` [Compound I-1, (6-(4-fluoro-1H-pyrazol-1-yl)pyridin-3-yl)(4-(4-methyl-6-((5-methyl-1H-pyrazol-3-yl)amino)pyrimidin-2-yl)piperazin-1-yl)methanone], the results for the IC50 in assay [1] and in assay [2] were 1130 nM and 12.5 nM, respectively.

For the compound `Cc1cc(Nc2cc(C)[nH]n2)nc(N2CCN(C(=O)c3ccc(-n4cc(F)cn4)nc3)[C@@H](C)C2)n1` [Compound I-2, (S)-(6-(4-fluoro-1H-pyrazol-1-yl)pyridin-3-yl)(2-methyl-4-(4-methyl-6-((5-methyl-1H-pyrazol-3-yl)amino)pyrimidin-2-yl)piperazin-1-yl)methanone], the IC50 in assay [1] is 851 nM; in assay [2], 11.8 nM.

On to `Cc1cc(Nc2cc(C)[nH]n2)nc(N2CC3CCC(C2)N3C(=O)c2ccc(-n3cc(F)cn3)nc2)n1` [Compound I-4, (6-(4-fluoro-1H-pyrazol-1-yl)pyridin-3-yl)(3-(4-methyl-6-((5-methyl-1H-pyrazol-3-yl)amino)pyrimidin-2-yl)-3,8-diazabicyclo [3.2.1]octane-8-yl) methanone], for which the concentration for half-maximal inhibition (IC50) in assay [1] was 80 nM; in assay [2], 1.4 nM.

As to `Cc1cc(Nc2nc(N3CC4CCC(C3)N4C(=O)c3ccc(-n4cc(F)cn4)nc3)nc3ccccc23)n[nH]1` [Compound I-5, (6-(4-fluoro-1H-pyrazol-1-yl)pyridin-3-yl)(3-(4-((5-methyl-1H-pyrazol-3-yl)amino)quinazoline-2-yl)-3,8-diazabicyclo[3.2.1]octane-8-yl)methanone], the figures for the half-maximal inhibitory concentration (IC50) in assay [1] and in assay [2] were 149 nM and 6.2 nM, respectively.

For the compound `Cc1cc(Nc2cc(C)[nH]n2)nc(N2CC3COCC(C2)N3C(=O)c2ccc(-n3cc(F)cn3)nc2)n1` [Compound I-7, (6-(4-fluoro-1H-pyrazol-1-yl)pyridin-3-yl)(7-(4-methyl-6-((5-methyl-1H-pyrazol-3-yl)amino)pyrimidin-2-yl)-3-oxa-7,9-diazabicyclo [3.3.1]nonane-9-yl)methanone], the IC50 in assay [1] amounted to 391 nM; in assay [2], 10.3 nM.

Consider `Cc1cc(Nc2cc(C)[nH]n2)nc(N2C3CCC2CN(C(=O)c2ccc(-n4cc(C#N)cn4)nc2)C3)n1` [Compound I-9], for which the values for the IC50 in assay [1] and in assay [2] were 304 nM and 8.6 nM, respectively.

Take `Cc1cc(Nc2cc(C)[nH]n2)nc(N2CC3CCC(C2)N3C(=O)c2ccc(N3CC4C(C3)C4(C)C)nc2)n1` (stereo not drawn) [Compound I-10, (6-(6,6-dimethyl-3-azabicyclo [3.1.0]hexane-3-yl)pyridin-3-yl)(3-(4-methyl-6-((5-methyl-1H-pyrazol-3-yl)amino)pyrimidin-2-yl)-3,8-diazabicyclo[3.2.1]octane-8-yl)methanone]: the IC50 in assay [1] amounted to 1550 nM; in assay [2], 7.3 nM.

As for `COC(=O)c1cc(Nc2cc(C)[nH]n2)nc(N2CC3CCC(C2)N3C(=O)c2ccc(-n3cc(F)cn3)nc2)n1` [Compound I-11, Methyl 2-(8-(6-(4-fluoro-1H-pyrazol-1-yl)nicotinoyl)-3,8-diazabicyclo[3.2.1]octane-3-yl)-6-((5-methyl-1H-pyrazol-3-yl)amino)pyrimidin-4-carboxylate], the 50% inhibitory concentration (IC50) in assay [1] is 1020 nM; in assay [2], 24.7 nM.

For the compound `Cc1cc(Nc2cc(C)[nH]n2)nc(N2CCN(C(=O)c3ccc(-n4cc(F)cn4)nc3)C3(CC3)C2)n1` [Compound I-12, (6-(4-fluoro-1H-pyrazol-1-yl)pyridin-3-yl)(7-(4-methyl-6-((5-methyl-1H-pyrazol-3-yl)amino)pyrimidin-2-yl)-4,7-diazaspiro[2.5]octane-4-yl)methanone], the half-inhibitory concentration (IC50) was 180 nM in assay [1] and 0.6 nM in assay [2].

With `Cc1cc(Nc2cc(C)[nH]n2)nc(N2CC3CCC(C2)N3C(=O)c2ccc(-n3cc(F)cn3)nn2)n1` [Compound I-13, (6-(4-fluoro-1H-pyrazol-1-yl)pyridazin-3-yl)(3-(4-methyl-6-((5-methyl-1H-pyrazol-3-yl)amino)pyrimidin-2-yl)-3,8-diazabicyclo[3.2.1]octane-8-yl)methanone], the figures for the IC50 in assay [1] and in assay [2] were 78 nM and 1.5 nM, respectively.

Regarding `Cc1cc(Nc2cc(C(F)(F)F)nc(N3CC4CCC(C3)N4C(=O)c3ccc(-n4cc(F)cn4)nn3)n2)n[nH]1` [Compound I-16, (6-(4-fluoro-1H-pyrazol-1-yl)pyridazin-3-yl)(3-(4-((5-methyl-1H-pyrazol-3-yl)amino)-6-(trifluoromethyl)pyrimidin-2-yl)-3,8-diazabicyclo[3.2.1]octane-8-yl)methanone], the IC50 in assay [1] turned out to be 738 nM; in assay [2], 8 nM.

As to `Cc1cc(Nc2cc(C(=O)O)nc(N3CC4CCC(C3)N4C(=O)c3ccc(-n4cc(F)cn4)nc3)n2)n[nH]1` [Compound I-19, 2-(8-(6-(4-fluoro-1H-pyrazol-1-yl)nicotinoyl)-3,8-diazabicyclo[3.2.1]octane-3-yl)-6-((5-methyl-1H-pyrazol-3-yl)amino)pyrimidin-4-formic acid], the 50% inhibitory concentration (IC50) in assay [1] stood at 2760 nM; in assay [2] it was 25.6 nM.

Turning to `Cc1cc(Nc2cc(CO)nc(N3CC4CCC(C3)N4C(=O)c3ccc(-n4cc(F)cn4)nc3)n2)n[nH]1` [Compound I-20, (6-(4-fluoro-1H-pyrazol-1-yl)pyridin-3-yl)(3-(4-(hydroxymethyl)-6-((5-methyl-1H-pyrazol-3-yl)amino)pyrimidin-2-yl)-3,8-diazabicyclo[3.2.1]octane-8-yl)methanone], the IC50 stood at 1550 nM in assay [1] and 3 nM in assay [2].

On to `Cc1cc(Nc2cc(C)[nH]n2)nc(N2CC3CCC(C2)N3C(=O)c2ccc(-c3cnn(C)c3)nn2)n1` [Compound I-22, (6-(1-methyl-1H-pyrazol-4-yl)pyridazin-3-yl)(3-(4-methyl-6-((5-methyl-1H-pyrazol-3-yl)amino)pyrimidin-2-yl)-3,8-diazabicyclo[3.2.1]octane-8-yl)methanone], for which the figures for the IC50 in assay [1] and in assay [2] were 221 nM and 2 nM, respectively.

As to `Cc1cc(Nc2cc(C)[nH]n2)nc(N2CC3CCC(C2)N3C(=O)c2ccc(-c3cnn(C)c3)nc2)n1` [Compound I-24, (6-(1-methyl-1H-pyrazol-4-yl)pyridin-3-yl)(3-(4-methyl-6-((5-methyl-1H-pyrazol-3-yl)amino)pyrimidin-2-yl)-3,8-diazabiciyclo [3.2.1]octane-8-yl) methanone], the IC50 was found to be 374 nM in assay [1] and 8.1 nM in assay [2].

Take `Cc1cc(Nc2cc(C)[nH]n2)nc(N2CC3CCC(C2)N3C(=O)c2ccc(-c3ccc(F)cc3)nc2)n1` [Compound I-25, (6-(4-fluorophenyl)pyridin-3-yl)(3-(4-methyl-6-((5-methyl-1H-pyrazol-3-yl)amino)pyrimidin-2-yl)-3,8-diazabicyclo[3.2.1]octane 8-yl)methanone]: the IC50 in assay [1] is 260 nM; in assay [2] it was 5.6 nM.

In the case of `Cc1cc(Nc2cc(C)[nH]n2)nc(N2CC3CCC(C2)N3C(=O)c2ccc(-c3ccncc3)nc2)n1` [Compound I-28, [2,4′-bipyridin]-5-yl(3-(4-methyl-6-((5-methyl-1H-pyrazol-3-yl)amino)pyrimidin-2-yl)-3,8-diazabicyclo [3.2.1]octane-8-yl)methanone], the IC50 was 467 nM in assay [1] and 2.6 nM in assay [2].

The values are drawn from patent publication US12234222B2, “Piperazine amide derivative, preparation method therefor, and use thereof in medicine” (ZHEJIANG HISUN PHARMACEUTICAL CO., LTD., priority 2019, dated 2025).
